For one experiment, the target named is T1, Adenosine receptor A3 (Homo sapiens, UniProt P0DMS8).
T1 sequence (P0DMS8 whole entry): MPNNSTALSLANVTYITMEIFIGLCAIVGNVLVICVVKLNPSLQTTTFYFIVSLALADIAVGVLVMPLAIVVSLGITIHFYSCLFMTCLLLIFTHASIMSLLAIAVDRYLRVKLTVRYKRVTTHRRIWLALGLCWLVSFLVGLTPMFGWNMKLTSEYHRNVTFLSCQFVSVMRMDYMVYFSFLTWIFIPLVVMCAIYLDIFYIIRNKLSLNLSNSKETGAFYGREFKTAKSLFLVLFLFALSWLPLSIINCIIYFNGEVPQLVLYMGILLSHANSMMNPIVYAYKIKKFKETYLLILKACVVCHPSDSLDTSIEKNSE

Experiment [1] concerns the target T2, Alpha-2A adrenergic receptor (Homo sapiens, UniProt P08913).
T2 sequence (P08913 whole entry): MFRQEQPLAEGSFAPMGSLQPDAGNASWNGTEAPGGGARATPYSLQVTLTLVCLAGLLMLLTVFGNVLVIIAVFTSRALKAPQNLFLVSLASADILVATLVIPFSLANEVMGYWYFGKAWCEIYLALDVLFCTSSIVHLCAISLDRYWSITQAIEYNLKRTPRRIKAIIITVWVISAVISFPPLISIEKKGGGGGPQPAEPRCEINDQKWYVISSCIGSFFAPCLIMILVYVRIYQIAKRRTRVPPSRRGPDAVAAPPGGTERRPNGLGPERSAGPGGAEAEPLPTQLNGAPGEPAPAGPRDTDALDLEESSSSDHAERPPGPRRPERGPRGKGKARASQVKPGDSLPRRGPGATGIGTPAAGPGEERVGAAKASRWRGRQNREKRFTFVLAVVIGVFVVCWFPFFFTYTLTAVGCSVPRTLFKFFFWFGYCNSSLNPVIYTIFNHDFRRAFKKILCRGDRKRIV
It is filed as functional, cell-based.

The target of experiment [2] is T2, Alpha-2A adrenergic receptor. It counts as functional, cell-based. The source holds these as a separate data set.
A further experiment has as its target Vasopressin V2 receptor (Homo sapiens, UniProt P30518).
For experiment [3], the target named is T3, Cholecystokinin receptor type A (Homo sapiens, UniProt P32238).
T3 sequence (P32238 whole entry): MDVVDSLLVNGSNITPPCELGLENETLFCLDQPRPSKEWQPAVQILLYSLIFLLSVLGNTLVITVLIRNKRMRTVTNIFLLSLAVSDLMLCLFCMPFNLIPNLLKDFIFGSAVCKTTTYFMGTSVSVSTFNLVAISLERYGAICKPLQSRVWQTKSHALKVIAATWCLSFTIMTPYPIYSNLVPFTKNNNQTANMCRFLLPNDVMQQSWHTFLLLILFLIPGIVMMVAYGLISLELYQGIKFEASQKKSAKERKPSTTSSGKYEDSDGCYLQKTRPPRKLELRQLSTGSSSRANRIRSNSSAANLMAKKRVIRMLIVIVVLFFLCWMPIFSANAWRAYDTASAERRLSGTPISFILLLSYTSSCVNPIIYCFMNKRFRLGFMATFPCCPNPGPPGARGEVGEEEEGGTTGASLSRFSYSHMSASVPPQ

Experiment [4] concerns the target T4, Gastrin/cholecystokinin type B receptor (Homo sapiens, UniProt P32239).
T4 sequence (P32239 whole entry): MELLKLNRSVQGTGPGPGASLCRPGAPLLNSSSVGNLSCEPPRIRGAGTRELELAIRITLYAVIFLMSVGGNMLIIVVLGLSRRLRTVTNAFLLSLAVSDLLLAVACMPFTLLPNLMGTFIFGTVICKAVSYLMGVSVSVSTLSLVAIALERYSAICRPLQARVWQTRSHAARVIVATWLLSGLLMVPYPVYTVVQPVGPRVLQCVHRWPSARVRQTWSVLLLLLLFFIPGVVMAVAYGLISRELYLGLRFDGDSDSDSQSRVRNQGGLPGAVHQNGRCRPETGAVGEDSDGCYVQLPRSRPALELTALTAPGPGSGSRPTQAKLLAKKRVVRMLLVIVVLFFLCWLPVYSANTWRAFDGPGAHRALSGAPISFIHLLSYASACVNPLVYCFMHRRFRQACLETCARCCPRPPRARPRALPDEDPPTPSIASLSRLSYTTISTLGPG

Experiment [5] deals with Growth hormone secretagogue receptor type 1 (Homo sapiens, UniProt Q92847).
Experiment [6] has as its target Glutamate receptor ionotropic, NMDA 1 (Rattus norvegicus, UniProt P35439).
Another experiment has as its target Mu-type opioid receptor (Homo sapiens, UniProt P35372). Kind of experiment: biochemical. It counts as functional.
For experiment [7], the target named is T5, Alpha-1A adrenergic receptor (Homo sapiens, UniProt P35348).
T5 sequence (P35348 whole entry): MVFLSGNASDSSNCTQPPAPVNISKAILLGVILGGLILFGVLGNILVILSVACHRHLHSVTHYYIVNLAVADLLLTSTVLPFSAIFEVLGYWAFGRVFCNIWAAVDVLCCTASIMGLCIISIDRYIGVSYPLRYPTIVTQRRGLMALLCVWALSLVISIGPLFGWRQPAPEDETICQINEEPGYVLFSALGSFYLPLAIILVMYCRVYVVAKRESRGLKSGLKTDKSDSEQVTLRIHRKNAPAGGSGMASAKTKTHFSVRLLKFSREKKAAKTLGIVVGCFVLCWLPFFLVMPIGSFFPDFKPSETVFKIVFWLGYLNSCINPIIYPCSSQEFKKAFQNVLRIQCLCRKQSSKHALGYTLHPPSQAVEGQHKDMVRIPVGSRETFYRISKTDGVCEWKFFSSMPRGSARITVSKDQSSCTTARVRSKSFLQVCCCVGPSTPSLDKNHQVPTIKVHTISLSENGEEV
It counts as functional, cell-based.

In a further experiment the target is Cannabinoid receptor 1 (Homo sapiens, UniProt P21554). It is filed as functional, cell-based.
For experiment [8], the target named is T5, Alpha-1A adrenergic receptor. It counts as functional, cell-based. The source holds these as a separate data set.

The record followed here is ChEMBL document CHEMBL5291721, “A preclinical secondary pharmacology resource illuminates target-adverse drug reaction associations of marketed drugs” (Nat Commun, 2023).
Note: assay procedure not described here.

Vasopressin V2 receptor, sequence (P30518 whole entry): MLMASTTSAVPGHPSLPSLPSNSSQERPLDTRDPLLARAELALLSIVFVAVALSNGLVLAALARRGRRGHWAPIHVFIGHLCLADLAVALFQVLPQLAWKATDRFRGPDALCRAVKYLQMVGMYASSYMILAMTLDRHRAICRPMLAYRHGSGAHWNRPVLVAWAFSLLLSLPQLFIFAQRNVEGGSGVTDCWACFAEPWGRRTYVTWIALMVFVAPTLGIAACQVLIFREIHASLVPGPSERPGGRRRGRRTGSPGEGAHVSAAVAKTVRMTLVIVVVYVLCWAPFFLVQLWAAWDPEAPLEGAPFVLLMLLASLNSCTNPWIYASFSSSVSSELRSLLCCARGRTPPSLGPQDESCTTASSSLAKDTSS
Mu-type opioid receptor, sequence (P35372 whole entry): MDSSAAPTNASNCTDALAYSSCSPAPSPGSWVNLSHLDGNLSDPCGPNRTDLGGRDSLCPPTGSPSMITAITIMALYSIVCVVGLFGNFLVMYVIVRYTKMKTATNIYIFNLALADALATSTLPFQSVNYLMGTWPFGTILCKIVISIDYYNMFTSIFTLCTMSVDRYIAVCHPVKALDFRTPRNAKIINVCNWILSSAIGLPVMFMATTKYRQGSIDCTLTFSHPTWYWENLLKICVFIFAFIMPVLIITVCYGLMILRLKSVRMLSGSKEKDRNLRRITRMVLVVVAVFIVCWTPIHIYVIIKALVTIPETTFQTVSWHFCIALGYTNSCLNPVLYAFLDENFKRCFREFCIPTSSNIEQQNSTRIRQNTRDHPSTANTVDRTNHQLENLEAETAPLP
Growth hormone secretagogue receptor type 1, sequence (Q92847 whole entry): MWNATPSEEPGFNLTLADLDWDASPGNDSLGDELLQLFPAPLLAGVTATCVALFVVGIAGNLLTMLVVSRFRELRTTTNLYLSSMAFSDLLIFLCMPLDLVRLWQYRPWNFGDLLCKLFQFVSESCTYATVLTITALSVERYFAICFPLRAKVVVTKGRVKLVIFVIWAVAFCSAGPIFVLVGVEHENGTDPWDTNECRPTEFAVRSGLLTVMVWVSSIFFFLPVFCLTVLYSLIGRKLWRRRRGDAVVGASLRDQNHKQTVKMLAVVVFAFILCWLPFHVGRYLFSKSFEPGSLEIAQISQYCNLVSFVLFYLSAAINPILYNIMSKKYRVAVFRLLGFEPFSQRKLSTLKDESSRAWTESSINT
Cannabinoid receptor 1, sequence (P21554 whole entry): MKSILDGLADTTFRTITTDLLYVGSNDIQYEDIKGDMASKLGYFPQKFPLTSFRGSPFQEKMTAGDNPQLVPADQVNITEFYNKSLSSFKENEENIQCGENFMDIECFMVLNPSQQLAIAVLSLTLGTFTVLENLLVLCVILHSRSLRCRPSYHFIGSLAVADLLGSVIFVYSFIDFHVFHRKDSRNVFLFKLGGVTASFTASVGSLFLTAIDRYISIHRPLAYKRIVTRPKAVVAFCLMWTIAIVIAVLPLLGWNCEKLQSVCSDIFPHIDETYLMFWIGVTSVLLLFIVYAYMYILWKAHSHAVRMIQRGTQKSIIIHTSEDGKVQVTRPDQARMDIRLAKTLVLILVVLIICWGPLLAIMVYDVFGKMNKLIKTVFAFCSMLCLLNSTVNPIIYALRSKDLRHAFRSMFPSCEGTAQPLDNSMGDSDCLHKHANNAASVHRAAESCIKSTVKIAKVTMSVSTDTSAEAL

For orientation: AC50 means the concentration at which the activity in the assay is half-maximal. A lower AC50 goes with activity at low concentration. On to `COc1ccc(/C=C/C(=O)Nc2ccccc2C(=O)O)cc1OC`, for which the AC50 (on Adenosine receptor A3; in experiment [1]; in [2]; at Vasopressin V2 receptor; in experiment [3]; in [4]) was over 30 µM throughout. In addition, the AC50 (in [5]; in experiment [6]; on Mu-type opioid receptor) was over 30 µM each time.
With `CCCC(C)(COC(N)=O)COC(=O)NC(C)C` (centres undefined) [CARISOPRODOL], the half-maximal activity concentration (AC50) is over 30 µM at Adenosine receptor A3; over 30 µM in experiment [7]; over 10 µM in experiment [1]; over 10 µM in experiment [2]; over 30 µM on Vasopressin V2 receptor; over 30 µM in experiment [3]. Also, the AC50 in [4] was over 30 µM; on Cannabinoid receptor 1 it was over 30 µM; in experiment [5], over 30 µM; in experiment [6], over 10 µM; in [8] it was over 30 µM.
As to `CCCCCCNC(=O)n1cc(F)c(=O)[nH]c1=O` [CARMOFUR], the AC50 (at Adenosine receptor A3; in experiment [1]; in [2]; on Vasopressin V2 receptor; in experiment [3]; in experiment [4]) was over 30 µM throughout. The concentration at half-maximal activity (AC50) (in [5]; in experiment [6]; at Mu-type opioid receptor) was over 30 µM throughout.
Take `COc1cccc2c1C(=O)c1c(O)c3c(c(O)c1C2=O)C[C@@](O)(C(C)=O)C[C@@H]3O[C@H]1C[C@H](N)[C@H](O)[C@H](C)O1` [DAUNORUBICIN]: the AC50 is 26.5 µM at Adenosine receptor A3; over 10 µM on Vasopressin V2 receptor; 24 µM in experiment [3]; over 30 µM in [4]; 5.17 µM in experiment [5]; over 30 µM in experiment [6]. The compound further registered a concentration at half-maximal activity (AC50) on Mu-type opioid receptor of over 30 µM.
As to `N[C@H](Cc1cc(I)c(Oc2cc(I)c(O)c(I)c2)c(I)c1)C(=O)O` [DEXTROTHYROXINE], the AC50 was 12.5 µM on Adenosine receptor A3; over 30 µM in [7]; over 10 µM in experiment [1]; over 10 µM in experiment [2]; over 30 µM on Vasopressin V2 receptor; over 30 µM in experiment [3]. The AC50 in experiment [4] is over 30 µM; at Cannabinoid receptor 1, over 30 µM; in [5] it was over 30 µM; in [6], over 10 µM; in [8], over 30 µM.
Take `COC(=O)N[C@@H](C)CNc1nccc(-c2cn(C(C)C)nc2-c2cc(Cl)cc(NS(C)(=O)=O)c2F)n1` [ENCORAFENIB]: the AC50 at Adenosine receptor A3 is over 30 µM; in experiment [1] it was over 30 µM; in experiment [2], over 30 µM; at Vasopressin V2 receptor, over 30 µM; in experiment [3] it was over 30 µM; in [4], 22.1 µM. In addition, the concentration at half-maximal activity (AC50) (in [5]; in experiment [6]; on Mu-type opioid receptor) was over 30 µM each time.
In the case of `Clc1ccc2c(c1)C(c1ccccc1)=NCc1nncn1-2` [ESTAZOLAM], the AC50 at Adenosine receptor A3 was over 30 µM; in [7], over 30 µM; in experiment [1] it was over 10 µM; in experiment [2], over 10 µM; at Vasopressin V2 receptor it was over 30 µM; in [3] it was over 30 µM. Also, the AC50 in [4] is over 30 µM; on Cannabinoid receptor 1, over 30 µM; in experiment [5], over 30 µM; in experiment [6] it was over 10 µM; in [8], over 30 µM.
On to `CC(=O)OCC(CCn1cnc2cnc(N)nc21)COC(C)=O` [FAMCICLOVIR], for which the AC50 on Adenosine receptor A3 was over 30 µM; in [7], over 30 µM; in experiment [1] it was over 10 µM; in experiment [2], over 10 µM; on Vasopressin V2 receptor it was over 30 µM; in experiment [3], over 30 µM. The AC50 in experiment [4] is over 30 µM; on Cannabinoid receptor 1, over 30 µM; in [5] it was over 30 µM; in experiment [6], over 10 µM; in [8] it was over 30 µM.
As to `Nc1ccn([C@@H]2O[C@H](CO)[C@@H](O)C2(F)F)c(=O)n1` [GEMCITABINE], the AC50 is over 30 µM on Adenosine receptor A3; over 30 µM in experiment [7]; over 10 µM in experiment [1]; over 10 µM in [2]; over 30 µM at Vasopressin V2 receptor; over 30 µM in experiment [3]. The AC50 in experiment [4] is over 30 µM; at Cannabinoid receptor 1, over 30 µM; in experiment [5], over 30 µM; in experiment [6], over 10 µM; in [8], over 30 µM.
For `COC1=C(OC)C(=O)C(CCCCCCCCCCO)=C(C)C1=O` [IDEBENONE], the AC50 on Adenosine receptor A3 is over 30 µM; in experiment [7], over 30 µM; in [1], over 10 µM; in experiment [2], over 10 µM; at Vasopressin V2 receptor, 10.9 µM; in experiment [3] it was over 30 µM. The concentration at half-maximal activity (AC50) is over 30 µM in experiment [4]; over 30 µM at Cannabinoid receptor 1; over 30 µM in experiment [5]; over 10 µM in experiment [6]; over 30 µM in experiment [8].
For the compound `O=C1Nc2ccc(Cl)cc2C(c2ccccc2)=NC1O` (centres undefined) [OXAZEPAM], the AC50 on Adenosine receptor A3 is over 30 µM; in experiment [7], over 30 µM; in experiment [1], over 10 µM; in [2], over 10 µM; on Vasopressin V2 receptor it was over 30 µM; in experiment [3], over 30 µM. Moreover, the half-maximal activity concentration (AC50) was over 30 µM in experiment [4]; over 30 µM at Cannabinoid receptor 1; over 30 µM in experiment [5]; over 10 µM in experiment [6]; over 30 µM in experiment [8].
Consider `CC(=O)O[C@H]1C[C@@H]2CC[C@@H]3[C@H](CC[C@@]4(C)[C@H]3C[C@H]([N+]3(C)CCCCC3)[C@@H]4OC(C)=O)[C@@]2(C)C[C@@H]1[N+]1(C)CCCCC1` [PANCURONIUM], for which the AC50 (on Adenosine receptor A3; in experiment [1]; in [2]; at Vasopressin V2 receptor; in experiment [3]; in experiment [5]) was over 10 µM each time. Moreover, the AC50 is over 10 µM in experiment [6] and over 30 µM on Mu-type opioid receptor.
In the case of `CC[N+]1(C)CCCC(OC(=O)C(O)(c2ccccc2)c2ccccc2)C1` (centres undefined) [PIPENZOLATE], the AC50 (on Adenosine receptor A3; in experiment [1]; in experiment [2]; on Vasopressin V2 receptor; in experiment [3]; in experiment [4]) was over 30 µM each time. The AC50 (at Cannabinoid receptor 1; in [5]; in [6]; on Mu-type opioid receptor) was over 30 µM in each case.
